Patent US20210395745A1, “RNAI AGENTS FOR HEPATITIS B VIRUS INFECTION” (Arrowhead Pharmaceuticals, Inc., priority 2019, published 2021)

Tests used:
Hepatitis B Virus (HBV) [1] = assay: Serum HBsAg levels in X Region Knockout model mice; type: in vivo; settings: Example 14, single SC, 2 mg/kg AD04872 alone or with 0.7 to 2 mg/kg AD05070, days 8-29
Procedure: Serum was collected and diluted 10 to 8000-fold in PBS containing 5% nonfat dry milk. Secondary HBsAg standards diluted in the nonfat milk solution were prepared from serum of ICR mice (Harlan Sprague Dawley) that had been transfected with 10 μg HBsAg-expressing plasmid pRc/CMV-HBs (Aldevron, Fargo, N. Dak.). HBsAg levels were determined with a GS HBsAg EIA 3.0 kit (Bio-Rad Laboratories, Inc., Redmond, Wash.) as described by the manufacturer. Recombinant HBsAg protein, ayw subtype, also diluted in nonfat milk in PBS, was used as a primary standard (Aldevron).
HBsAg expression for each animal was normalized to the control group of mice injected with PBS in order to account for the non-treatment related decline in expression of MC-HBV1.3. First, the HBsAg level for each animal at a time point was divided by the pre-treatment level of expression in that animal in order to determine the ratio of expression “normalized to pre-treatment”. Expression at a specific time point was then normalized to the control group by dividing the “normalized to pre-treatment” ratio for an individual animal by the average “normalized to pre-treatment” ratio of all mice in the normal PBS control group.

Hepatitis B Virus (HBV) [2] = assay: Serum HBV DNA levels in X Region Knockout model mice; settings: Example 14, single SC, 2 mg/kg AD04872 with 0.7 to 2 mg/kg AD05070, days 8-22
Hepatitis B Virus (HBV) [3] = assay: Serum HBsAg levels (ELISA) in pHBV model mice; type: in vivo, NOD-SCID mice; settings: for Average HBsAg levels normalized to pre-treatment and PBS control: 4.0 mg/kg sc day 1, Day 8
Excerpt: Six to eight-week-old female NOD.CB17-Prkdscid/NcrCrl (NOD-SCID) mice were transiently transfected in vivo with MC-HBV1.3 by hydrodynamic tail vein injection (Yang P L et al. “Hydrodynamic injection of viral DNA: a mouse model of acute hepatitis B virus infection,” PNAS USA 2002 Vol. 99: p. 13825-13830), administered 30 to 45 days prior to administration of an HBV RNAi agent or control. MC-HBV1.3 is a plasmid-derived minicircle that contains the same terminally redundant human hepatitis B virus sequence HBV1.3 as in plasmid pHBV1.3 and in the HBV1.3.32 transgenic mice (GenBank accession #V01460) (Guidotti L G et al., “High-level hepatitis B virus replication in transgenic mice,” J Virol 1995 Vol. 69, p 6158-6169.). 5 or 10 μg MC-HBV1.3 in Ringer's Solution in a total volume of 10% of the animal's body weight was injected into mice via tail vein to create pHBV model of chronic HBV infection. The solution was injected through a 27-gauge needle in 5-7 seconds as previously described (Zhang G et al., “High levels of foreign gene expression in hepatocytes after tail vein injection of naked plasmid DNA.” Human Gene Therapy 1999 Vol. 10, p 1735-1737.). At pre-dose (either day 1 pre-dose, day −1, or day −2), Hepatitis B surface antigen (HBsAg) HBsAg expression levels in serum were measured by ELISA and the mice were grouped according to average HBsAg expression levels.
HBV expression levels were normalized to pre-administration expression levels and to control mice injected with phosphate buffered saline (“PBS”).
Mice were anesthetized with 2-3% isoflurane and blood samples were collected from the submandibular area into serum separation tubes (Sarstedt AG & Co., Nümbrecht, Germany). Blood was allowed to coagulate at ambient temperature for 20 min. The tubes were centrifuged at 8,000×g for 3 min to separate the serum and stored at 4° C.
Serum was collected and diluted 10 to 8000-fold in PBS containing 5% nonfat dry milk. […] HBsAg levels were determined with a GS HBsAg EIA 3.0 kit (Bio-Rad Laboratories, Inc., Redmond, Wash.) as described by the manufacturer. […]

## AD05070: HBV RNAi agent duplex: antisense AM06606-AS, sense AM06605-SS (antisense UACCAAUUUAUGCCUACAGCG; sense CGCUGUAGGCAUAAAUUGGUA; chemically modified, pattern not given here)
Hepatitis B Virus (HBV) [1]
  knockdown of HBsAg compared to PBS control: did not diminish the activity of the 2 mg/kg HBV RNAi agent AD04872
Hepatitis B Virus (HBV) [2]
  serum HBV DNA: did not diminish the activity of the 2 mg/kg HBV RNAi agent AD04872
Hepatitis B Virus (HBV) [3]; Ex 8 Group 6A
  Average HBsAg levels normalized to pre-treatment and PBS control: 0.058 ± 0.035
Hepatitis B Virus (HBV) [3]; Ex 8 Group 6B
  Average HBsAg levels normalized to pre-treatment and PBS control: 0.117 ± 0.058
Hepatitis B Virus (HBV) [3]; Example 15, pHBV mice, single SC injection, doses per Table 38, days 8-50
  HBsAg compared to PBS control: provided significant knockdown of HBsAg compared to PBS control across each of the time points measured
